Source: ChEMBL document CHEMBL1201862, “PubChem BioAssay data set” (2004)
Calls of active or inactive are those of the source.

What was measured:
[1] = molecular target: Eukaryotic translation initiation factor 4H (Homo sapiens, UniProt Q15056); assay: inhibitors of translation initiation factor eIF4H – SAR follow-up (AID 435011); assay type: functional
[2] = molecular target: Polyadenylate-binding protein 1 (Homo sapiens, UniProt P11940); assay: PABP inhibition in translation initiation, SAR follow-up (AID 435018); assay type: functional
Bcl-2-like protein 10 = Bcl-2-like protein 10 (Homo sapiens, UniProt Q9HD36); assay: Bcl-B/TR3 peptide binding disruption – biochemical, fluorescence polarization, FITC-TR3 peptide, selectivity assay for Bfl-1 inhibitor project, primary screen (AID 748);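 further: fluorescence polarization from a fluorescein-labelled TR3 peptide binding purified Bcl-B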
[3] = microbe, parasite or virus in culture; assay type: functional; conditions: Mycobacterium tuberculosis
[4] = THP-1 cell cytotoxicity, dose response, cytotoxicity control for non-replicating M. tuberculosis project (AID 489025); assay type: functional
[5] = HepG2 cell cytotoxicity, dose response, cytotoxicity control for non-replicating M. tuberculosis project (AID 489018); assay type: functional; conditions: Mycobacterium tuberculosis
[6] = Vero E6 cell cytotoxicity, dose response, cytotoxicity control for non-replicating M. tuberculosis project, secondary assay (AID 492998); assay type: functional, VeroE6; conditions: Vero C1008
cells = assay type: functional
[7] = molecular target: T1, RNA-binding protein pos-1 (Caenorhabditis elegans, UniProt G5EF15); assay: disruptors of C. elegans POS-1 RNA interaction – biochemical, fluorescence polarization, dose response (AID 1964);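 further: purified POS-1 fused to maltose binding protein made in E. coli; potency of compounds blocking POS-1 binding to fluorescent RNA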
T1 sequence (G5EF15 whole entry): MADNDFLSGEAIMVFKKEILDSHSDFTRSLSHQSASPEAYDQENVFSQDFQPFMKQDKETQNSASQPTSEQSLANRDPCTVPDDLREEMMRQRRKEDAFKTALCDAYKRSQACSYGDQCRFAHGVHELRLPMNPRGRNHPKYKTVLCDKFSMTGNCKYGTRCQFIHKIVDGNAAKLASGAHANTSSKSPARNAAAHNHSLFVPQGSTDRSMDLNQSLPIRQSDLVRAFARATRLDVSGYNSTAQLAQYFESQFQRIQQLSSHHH

[8] = molecular target: Intestinal-type alkaline phosphatase (Homo sapiens, UniProt P09923); assay: Dose Response confirmation of uHTS hits from a small molecule inhibitors of human intestinal alkaline phosphatase via a luminescent assay. [Related pubchem assays (depositor defined):AID2544, AID2574]; assay type: functional
[9] = molecular target: T2, Corticotropin-releasing factor receptor 2/Corticotropin-releasing factor-binding protein (Homo sapiens, UniProt P24387+Q13324); assay: activators of CRF receptor 2 with binding protein – uHTS hits, confirmation (AID 602473); assay type: functional; conditions: read-out: EC50_Mean
T2 sequence (Q13324 whole entry): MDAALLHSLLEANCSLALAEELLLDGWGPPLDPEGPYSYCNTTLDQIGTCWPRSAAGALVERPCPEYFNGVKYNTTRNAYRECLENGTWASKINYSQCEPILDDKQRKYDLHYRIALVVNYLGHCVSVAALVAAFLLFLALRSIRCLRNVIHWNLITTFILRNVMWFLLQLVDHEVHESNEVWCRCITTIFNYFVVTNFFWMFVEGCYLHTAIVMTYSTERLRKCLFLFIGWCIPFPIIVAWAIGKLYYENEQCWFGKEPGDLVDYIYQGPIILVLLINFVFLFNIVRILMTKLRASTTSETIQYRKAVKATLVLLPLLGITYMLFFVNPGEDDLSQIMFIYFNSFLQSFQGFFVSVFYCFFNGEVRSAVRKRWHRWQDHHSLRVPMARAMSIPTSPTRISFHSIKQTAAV
T2 sequence (P24387 whole entry): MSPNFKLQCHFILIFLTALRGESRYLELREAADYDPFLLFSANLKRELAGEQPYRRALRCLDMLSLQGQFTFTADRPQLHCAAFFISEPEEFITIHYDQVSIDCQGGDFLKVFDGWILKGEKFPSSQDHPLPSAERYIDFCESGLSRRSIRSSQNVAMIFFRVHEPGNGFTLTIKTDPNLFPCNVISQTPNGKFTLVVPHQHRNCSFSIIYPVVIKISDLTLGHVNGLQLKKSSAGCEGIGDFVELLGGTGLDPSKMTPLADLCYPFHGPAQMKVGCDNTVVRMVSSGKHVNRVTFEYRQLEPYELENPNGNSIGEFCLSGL

SUMO E1/E2 = SUMO E1/E2 (Homo sapiens, UniProt P63279+Q9UBE0+Q9UBT2); assay: SAR analysis of SUMOylation using HTRF in an in-Vitro dose response assay. [Related pubchem assays (depositor defined):AID2006, AID2011, AID2018, AID2069, AID2658]; assay type: functional
[10] = molecular target: T3, Voltage-gated N-type calcium channel alpha-1B subunit/Amyloid beta A4 precursor protein-binding family A member 1 (Homo sapiens, UniProt Q00975+Q02410); assay: disruptors of Mint-PDZ/N-type channel peptide interaction – biochemical, HTRF, set 2, SAR follow-up (AID 434980); assay type: functional
[11] = molecular target: T3, Voltage-gated N-type calcium channel alpha-1B subunit/Amyloid beta A4 precursor protein-binding family A member 1; assay: disruptors of Mint-PDZ/N-type channel peptide interaction – biochemical, HTRF, SAR follow-up (AID 2489); assay type: functional

T3 sequence (Q00975 whole entry): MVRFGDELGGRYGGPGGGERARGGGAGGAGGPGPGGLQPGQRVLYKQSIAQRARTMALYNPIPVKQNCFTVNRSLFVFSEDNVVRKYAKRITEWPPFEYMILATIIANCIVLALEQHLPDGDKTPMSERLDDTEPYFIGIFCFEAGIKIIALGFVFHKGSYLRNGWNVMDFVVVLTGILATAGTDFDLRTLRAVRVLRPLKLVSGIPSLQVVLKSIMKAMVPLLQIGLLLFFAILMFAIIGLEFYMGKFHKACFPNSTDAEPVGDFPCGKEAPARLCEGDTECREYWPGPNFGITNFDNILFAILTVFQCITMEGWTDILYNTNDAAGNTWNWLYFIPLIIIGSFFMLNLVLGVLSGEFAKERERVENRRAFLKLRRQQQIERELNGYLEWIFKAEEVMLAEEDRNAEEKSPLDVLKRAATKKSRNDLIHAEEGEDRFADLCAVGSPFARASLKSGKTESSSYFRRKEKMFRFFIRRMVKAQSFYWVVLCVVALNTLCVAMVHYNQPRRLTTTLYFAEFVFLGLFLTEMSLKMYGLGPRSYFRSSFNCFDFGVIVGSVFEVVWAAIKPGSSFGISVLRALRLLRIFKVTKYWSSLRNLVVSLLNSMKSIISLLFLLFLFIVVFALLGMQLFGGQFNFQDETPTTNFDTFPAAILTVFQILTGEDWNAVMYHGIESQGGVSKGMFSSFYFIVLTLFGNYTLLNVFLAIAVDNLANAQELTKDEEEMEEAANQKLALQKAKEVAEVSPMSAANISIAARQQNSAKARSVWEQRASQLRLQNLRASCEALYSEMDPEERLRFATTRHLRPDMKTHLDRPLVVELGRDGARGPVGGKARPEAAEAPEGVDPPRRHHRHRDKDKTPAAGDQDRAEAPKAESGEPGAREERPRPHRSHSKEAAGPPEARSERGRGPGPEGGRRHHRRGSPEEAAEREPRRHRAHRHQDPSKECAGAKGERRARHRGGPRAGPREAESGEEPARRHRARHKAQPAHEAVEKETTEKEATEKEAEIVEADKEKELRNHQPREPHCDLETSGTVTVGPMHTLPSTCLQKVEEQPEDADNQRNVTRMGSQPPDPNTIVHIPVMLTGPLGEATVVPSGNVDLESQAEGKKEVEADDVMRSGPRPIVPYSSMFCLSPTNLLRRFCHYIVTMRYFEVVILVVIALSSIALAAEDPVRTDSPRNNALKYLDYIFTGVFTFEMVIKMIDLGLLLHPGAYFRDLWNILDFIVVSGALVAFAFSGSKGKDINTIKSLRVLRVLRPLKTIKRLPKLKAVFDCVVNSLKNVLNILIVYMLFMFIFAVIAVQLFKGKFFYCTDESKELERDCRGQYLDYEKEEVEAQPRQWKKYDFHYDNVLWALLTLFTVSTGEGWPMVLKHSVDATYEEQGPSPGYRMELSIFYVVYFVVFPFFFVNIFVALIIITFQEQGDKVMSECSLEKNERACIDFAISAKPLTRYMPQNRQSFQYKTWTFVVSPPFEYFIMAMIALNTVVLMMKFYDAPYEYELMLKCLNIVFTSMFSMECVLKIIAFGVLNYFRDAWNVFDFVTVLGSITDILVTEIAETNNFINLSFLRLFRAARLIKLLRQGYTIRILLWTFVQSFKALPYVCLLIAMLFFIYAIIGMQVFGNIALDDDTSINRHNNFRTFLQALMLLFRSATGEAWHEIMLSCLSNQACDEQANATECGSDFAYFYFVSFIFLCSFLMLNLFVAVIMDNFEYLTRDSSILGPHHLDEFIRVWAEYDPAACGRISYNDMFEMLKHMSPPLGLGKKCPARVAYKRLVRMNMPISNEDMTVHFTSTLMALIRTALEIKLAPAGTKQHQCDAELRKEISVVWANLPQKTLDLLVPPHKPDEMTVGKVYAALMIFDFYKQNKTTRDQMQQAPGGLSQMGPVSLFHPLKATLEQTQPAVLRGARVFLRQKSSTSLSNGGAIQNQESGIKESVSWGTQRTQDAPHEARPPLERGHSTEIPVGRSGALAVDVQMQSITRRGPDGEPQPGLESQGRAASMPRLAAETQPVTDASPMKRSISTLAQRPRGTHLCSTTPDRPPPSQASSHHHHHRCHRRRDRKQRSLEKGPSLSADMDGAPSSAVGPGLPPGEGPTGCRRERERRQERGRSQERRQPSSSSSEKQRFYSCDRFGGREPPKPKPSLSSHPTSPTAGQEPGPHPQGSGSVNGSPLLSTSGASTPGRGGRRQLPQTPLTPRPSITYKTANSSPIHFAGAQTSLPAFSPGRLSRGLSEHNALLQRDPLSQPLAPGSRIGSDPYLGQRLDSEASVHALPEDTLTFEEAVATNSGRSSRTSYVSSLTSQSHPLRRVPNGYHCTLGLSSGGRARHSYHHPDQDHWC
T3 sequence (Q02410 whole entry): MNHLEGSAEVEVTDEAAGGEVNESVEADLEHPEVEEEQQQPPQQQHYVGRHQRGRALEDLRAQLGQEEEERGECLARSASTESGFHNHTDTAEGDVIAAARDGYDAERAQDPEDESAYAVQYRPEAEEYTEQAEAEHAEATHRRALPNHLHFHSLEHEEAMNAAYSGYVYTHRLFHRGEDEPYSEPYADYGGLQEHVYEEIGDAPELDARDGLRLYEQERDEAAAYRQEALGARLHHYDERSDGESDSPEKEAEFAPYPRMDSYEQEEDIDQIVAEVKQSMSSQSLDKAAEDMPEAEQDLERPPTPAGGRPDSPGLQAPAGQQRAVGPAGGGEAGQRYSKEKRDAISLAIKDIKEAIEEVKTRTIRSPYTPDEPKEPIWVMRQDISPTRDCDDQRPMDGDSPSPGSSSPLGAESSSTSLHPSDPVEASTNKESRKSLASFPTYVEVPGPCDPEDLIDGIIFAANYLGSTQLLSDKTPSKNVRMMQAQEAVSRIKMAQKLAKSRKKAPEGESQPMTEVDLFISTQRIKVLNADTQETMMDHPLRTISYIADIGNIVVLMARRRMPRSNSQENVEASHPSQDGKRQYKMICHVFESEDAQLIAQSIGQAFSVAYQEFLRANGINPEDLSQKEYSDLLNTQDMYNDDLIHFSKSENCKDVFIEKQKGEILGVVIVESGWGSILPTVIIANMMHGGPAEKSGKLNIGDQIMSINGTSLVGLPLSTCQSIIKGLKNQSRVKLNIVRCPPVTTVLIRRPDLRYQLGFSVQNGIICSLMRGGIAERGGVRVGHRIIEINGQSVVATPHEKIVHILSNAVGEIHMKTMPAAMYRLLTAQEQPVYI
Chain of Polyadenylate-binding protein 1 (P11940 whole entry): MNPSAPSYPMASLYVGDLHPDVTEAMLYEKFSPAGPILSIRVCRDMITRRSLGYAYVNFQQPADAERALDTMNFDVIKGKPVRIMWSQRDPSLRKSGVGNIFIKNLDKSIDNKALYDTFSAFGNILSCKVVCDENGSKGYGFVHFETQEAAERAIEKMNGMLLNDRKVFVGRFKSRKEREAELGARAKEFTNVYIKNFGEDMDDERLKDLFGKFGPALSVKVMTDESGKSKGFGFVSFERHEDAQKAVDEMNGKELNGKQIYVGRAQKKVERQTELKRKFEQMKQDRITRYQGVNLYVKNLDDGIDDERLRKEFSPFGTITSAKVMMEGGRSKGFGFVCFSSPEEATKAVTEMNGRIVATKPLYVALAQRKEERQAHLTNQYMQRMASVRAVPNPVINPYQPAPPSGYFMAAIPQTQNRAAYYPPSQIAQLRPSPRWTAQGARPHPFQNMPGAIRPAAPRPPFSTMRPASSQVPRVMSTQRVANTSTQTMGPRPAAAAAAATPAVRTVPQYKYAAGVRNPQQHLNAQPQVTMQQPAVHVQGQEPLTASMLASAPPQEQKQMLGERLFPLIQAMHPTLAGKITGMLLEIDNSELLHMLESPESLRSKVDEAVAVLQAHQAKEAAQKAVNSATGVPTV
Chain of Bcl-2-like protein 10 (Q9HD36 whole entry): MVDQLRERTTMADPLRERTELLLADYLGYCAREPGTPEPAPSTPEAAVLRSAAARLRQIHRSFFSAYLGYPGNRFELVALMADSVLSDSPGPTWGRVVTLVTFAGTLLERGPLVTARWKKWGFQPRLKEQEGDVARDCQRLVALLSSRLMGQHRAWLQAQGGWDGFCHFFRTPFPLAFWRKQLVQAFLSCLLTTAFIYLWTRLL
Chain of Intestinal-type alkaline phosphatase (P09923 whole entry): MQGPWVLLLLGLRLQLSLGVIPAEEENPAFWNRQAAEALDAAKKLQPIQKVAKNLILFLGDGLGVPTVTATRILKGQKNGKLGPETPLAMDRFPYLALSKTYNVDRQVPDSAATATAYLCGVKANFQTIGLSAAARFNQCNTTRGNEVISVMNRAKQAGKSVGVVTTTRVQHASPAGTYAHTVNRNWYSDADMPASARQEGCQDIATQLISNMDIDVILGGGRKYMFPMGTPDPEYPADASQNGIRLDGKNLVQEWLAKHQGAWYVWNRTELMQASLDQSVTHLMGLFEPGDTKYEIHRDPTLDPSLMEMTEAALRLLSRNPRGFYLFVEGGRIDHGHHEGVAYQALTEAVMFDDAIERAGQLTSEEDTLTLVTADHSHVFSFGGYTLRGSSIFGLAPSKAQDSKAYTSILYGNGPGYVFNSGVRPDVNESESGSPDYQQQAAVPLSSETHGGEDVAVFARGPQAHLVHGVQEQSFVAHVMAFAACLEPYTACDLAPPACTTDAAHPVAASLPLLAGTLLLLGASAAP

Cc1cccc(NC(=O)CSc2ccc(-c3ccco3)nn2)c1C
IC50 [1]: 71.5 µM (active) | IC50 [2]: > 100 µM (inactive)

Cc1c(CN(C)C)c2c(n1Cc1ccccc1)C(=O)c1ccc(Br)cc1-2
IC50 (Bcl-2-like protein 10): > 50 µM (inactive) | CC50 [3]: 22 µM (active) | CC50 [4]: 10.5 µM (active) | CC50 [5]: > 20 µM (active) | CC50 [6]: 15.3 µM (active) | IC50 (cells): 10.6 µM (active)

COC(=O)Cn1cc(/C=C2\C(=O)NC(=O)N(c3ccccc3)C2=O)c2ccccc21
EC50 [7]: > 300 µM (inconclusive) | IC50 [8]: > 100 µM (inactive) | EC50 [9]: 7.64 µM (active)

Cc1ccc(S(=O)(=O)N(C)C)cc1NC(=O)c1cc(-c2ccco2)nc2ccccc12
IC50 (SUMO E1/E2): 4.98 µM (active) | IC50 [10]: > 56.8 µM (inactive) | IC50 [11]: > 56.8 µM (inactive)
